These results are taken from patent US9957270B2, “Fused pyrimidine-based hydroxamate derivatives” (Agency for Science, Technology and Research, priority 2014, dated 2018).

The target of one experiment is HDAC1 (Homo sapiens, UniProt Q13547). In words: HDAC enzyme assay, recombinant HDAC1.
Another experiment relates to K-562. Briefly: Anti-proliferative assay (cellular IC50), K-562. As to conditions: Homo sapiens, K562, 72 h, read-out: In Vitro Cellular IC50 K-562.
Experiment [1] addresses HDAC (HeLa nuclear extracts). Briefly: HDAC enzyme assay, HeLa nuclear extracts. The settings on record: read-out: In Vitro Enzymatic IC50 HDAC (HeLa).
A further experiment has as its system MOLT-4. Briefly: Anti-proliferative assay (cellular IC50), MOLT-4. As to conditions: Homo sapiens, MOLT-4, 72 h, read-out: In Vitro Cellular IC50 MOLT-4.
A further experiment concerns COLO 205. Briefly: cells. As to conditions: Homo sapiens, COLO 205, 72 h, read-out: In Vitro Cellular IC50 COLO 205.
For another experiment, the system named is MCF7. Briefly: Anti-proliferative assay (cellular IC50), MCF7. As to conditions: Homo sapiens, MCF7, 72 h, read-out: In Vitro Cellular IC50 MCF7.
In another experiment the test system is MV-4-11. In words: cells. As to conditions: Homo sapiens, MV4-11, 72 h, read-out: In Vitro Cellular IC50 MV-4-11.
A further experiment has as its system PC-3. In words: Anti-proliferative assay (cellular IC50), PC-3. The settings on record: Homo sapiens, PC-3, 72 h, read-out: In Vitro Cellular IC50 PC-3.

The structures appear in SMILES notation. A value given as a limit tells only on which side of the number the result lay.

A word on the IC50: it is the concentration that inhibits the measured activity by half.

Sequence of HDAC1 (Q13547 whole entry): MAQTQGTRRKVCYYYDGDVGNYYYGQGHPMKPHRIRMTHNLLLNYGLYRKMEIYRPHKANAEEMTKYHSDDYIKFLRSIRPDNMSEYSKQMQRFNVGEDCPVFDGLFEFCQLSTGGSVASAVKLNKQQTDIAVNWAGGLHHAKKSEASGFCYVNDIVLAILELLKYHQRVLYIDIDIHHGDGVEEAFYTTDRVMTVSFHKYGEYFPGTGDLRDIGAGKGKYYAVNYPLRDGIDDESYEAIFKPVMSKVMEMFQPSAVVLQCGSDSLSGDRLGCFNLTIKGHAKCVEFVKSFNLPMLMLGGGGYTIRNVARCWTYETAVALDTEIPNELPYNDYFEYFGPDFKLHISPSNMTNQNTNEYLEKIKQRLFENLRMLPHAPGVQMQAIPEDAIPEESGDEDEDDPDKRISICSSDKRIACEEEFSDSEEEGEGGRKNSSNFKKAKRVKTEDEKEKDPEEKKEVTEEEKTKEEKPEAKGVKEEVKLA
Description for K-562: Cells were cultivated at 37° C., 5% CO2 in media containing 10% FBS and 2 mM glutamine Cells were routinely monitored with MycoAlert™ PLUS Mycoplasma Detection Kit (Lonza Walkersville, Inc.) to make sure they were mycoplasma free. Antibiotics (100 U/mL of penicillin and 100 μg/mL of streptomycin) were only added to the media used for compound dilution and cells in 96-well assay plates.
For a typical screening experiment, cells (100 μL/well) are inoculated into 96 well microtiter plates at plating densities ranging from 2,000 to 30,000 cells/well depending on the doubling time of individual cell lines and assay linearity. […] Suspension cells are treated with test compounds immediately after cell inoculation.
Test compounds are serially diluted (3-fold or 4-fold, 8-concentration) using the same media and added to the plates (15 to 25 μL/well). After 72 h of cultivation, the plates are assayed for cell cytotoxicity/viability by using the following two methods.
Cells in plates are fixed with cold trichloroacetic acid (TCA) (50% w/v in DI water, 1/4 volume of the medium in each well), and incubated at 4° C. for 1 h (adherent cells) or 2 h (suspension cells). The plates are washed 5 times (tap water×3, DI water×2) and air-dried. SRB solution 0.4% (w/v) in 1% acetic acid is added to each well (60 μL/well) and the plates are incubated at room temperature for 30 min, then washed with 1% acetic acid solution 4 times, and air-dried.
The plates are added CellTiter-Glo® Reagent (95 μL/well) and read the luminescence on a BioTek H4 reader per manufacture's protocol.
The raw data are processed using BioTek's Software Gen5 (v2.03.01) to generate inhibitory IC50 values.

Consider `CC(C)n1c(NCc2ccc(C(=O)NO)cc2)nc2c(-c3cnc(N)nc3)nc(N3CCOCC3)nc21` [compound 80, 4-(((6-(2-aminopyrimidin-5-yl)-9-isopropyl-2-morpholino-9H-purin-8-yl)amino)methyl)-N-hydroxybenzamide], for which the concentration for half-maximal inhibition (IC50) on HDAC1 lay in the range of 0.1 to 1 µM.

As for `CC(C)n1cnc2c(N3CCOCC3)nc(-c3cccc(OCCCCCCC(=O)NO)c3)nc21` [compound 84, N-hydroxy-7-(3-(9-isopropyl-6-morpholino-9H-purin-2-yl)phenoxy)heptanamide], the IC50 was 2 to 10 µM with K-562; 0.1 to 1 µM at HDAC1; 0.01 to 0.1 µM in experiment [1]; 2 to 10 µM with MOLT-4; > 10 µM with COLO 205.

As to `O=C(CCCCCCn1cnc2c(N3CCC(CO)CC3)nc(-c3cccc(CO)c3)nc21)NO` [compound 103, N-hydroxy-7-(2-(3-(hydroxymethyl)phenyl)-6-(4-(hydroxymethyl)piperidin-1-yl)-9H-purin-9-yl)heptanamide], the IC50 is 0.5 to 2 µM in the experiment on MCF7, < 0.5 µM with MV-4-11, < 0.01 µM in experiment [1] and < 0.5 µM in the experiment on MOLT-4.

For the compound `CC(C)n1cnc2c(N3CCOCC3)nc(-c3cccc(NC(=O)CCCCCCC(=O)NO)c3)nc21` [compound 85, N^1-hydroxy-N^8-(3-(9-isopropyl-6-morpholino-9H-purin-2-yl)phenyl)octanediamide], the IC50 with K-562 was 0.5 to 2 µM; at HDAC1, 0.01 to 0.1 µM; in the experiment with MCF7 it was 0.5 to 2 µM; with PC-3, 2 to 10 µM; in the experiment with MV-4-11 it was 0.5 to 2 µM; in experiment [1] it was < 0.01 µM. The concentration for half-maximal inhibition (IC50) in the experiment with MOLT-4 is < 0.5 µM; with COLO 205, 0.5 to 2 µM.

With `CCN(CC)c1nc(-c2cccc(OCCCC(=O)NO)c2)c2ncn(C(C)C)c2n1` [compound 30, 4-(3-(2-(diethylamino)-9-isopropyl-9H-purin-6-yl)phenoxy)-N-hydroxybutanamide], the IC50 was 2 to 10 µM in the experiment on K-562; 1 to 10 µM at HDAC1; 2 to 10 µM with MCF7; < 0.5 µM in the experiment on PC-3; < 0.5 µM with MV-4-11; 0.1 to 1 µM in experiment [1]. The IC50 with COLO 205 was 2 to 10 µM.

In the case of `CC(C)n1cnc2c(-c3cccc(COCCCCC(=O)NO)c3)nc(N3CCOCC3)nc21` [compound 23, N-hydroxy-5-((3-(9-isopropyl-2-morpholino-9H-purin-6-yl)benzyl)oxy)pentanamide], the IC50 (on HDAC1; in experiment [1]) was 0.01 to 0.1 µM in each case.

For the compound `CCn1c(CN2CCC(C(=O)NO)CC2)nc2c(N3CCOCC3)nc(-c3cnc(N)nc3)nc21` [compound 88, 1-((2-(2-aminopyrimidin-5-yl)-9-ethyl-6-morpholino-9H-purin-8-yl)methyl)-N-hydroxypiperidine-4-carboxamide], the IC50 in the experiment with K-562 was > 10 µM; at HDAC1, 1 to 10 µM; in the experiment with MOLT-4, 2 to 10 µM; in the experiment on COLO 205, > 10 µM.

For the compound `CCN(CC)c1nc2c(-c3cnc(N)nc3)nc(N3CCOCC3)nc2n1CCCC(=O)NO` [compound 28, 4-(6-(2-aminopyrimidin-5-yl)-8-(diethylamino)-2-morpholino-9H-purin-9-yl)-N-hydroxybutanamide], the IC50 (on HDAC1; in experiment [1]) was 1 to 10 µM each time.

As to `CC(C)n1cnc2c(N3CCOCC3)nc(-c3cccc(OCCCC(=O)NO)c3)nc21` [compound 83, N-hydroxy-4-(3-(9-isopropyl-6-morpholino-9H-purin-2-yl)phenoxy)butanamide], the half-maximal inhibitory concentration (IC50) in the experiment on K-562 is 2 to 10 µM; on HDAC1 it was 0.1 to 1 µM; in experiment [1], 0.1 to 1 µM; in the experiment with MOLT-4, 0.5 to 2 µM; with COLO 205 it was 2 to 10 µM.
